# Earlier results as cited in patent publication US6444192B1, “Diagnostic imaging of lymph structures” (The Regents of the University of California, priority 1999, dated 2002).
# Like-named read-outs stand apart in the source and are kept apart here.
# Conditions: 3 to 5 mL in the breast mass and surrounding tissue
smiles,measurement,setting,value
CCN(CC)c1ccc(C(=C2C=CC(=[N+](CC)CC)C=C2)c2cc(S(=O)(=O)[O-])ccc2S(=O)(=O)[O-])cc1.[Na+] [isosulfan blue],sentinel node detected,first 87 cases,58%
same,sentinel node detected,next 87 cases,78%
